For the assay, the target named is T1, GluR0 (Synechocystis sp. PCC 6803, UniProt P73797).
T1 sequence (P73797 20-397): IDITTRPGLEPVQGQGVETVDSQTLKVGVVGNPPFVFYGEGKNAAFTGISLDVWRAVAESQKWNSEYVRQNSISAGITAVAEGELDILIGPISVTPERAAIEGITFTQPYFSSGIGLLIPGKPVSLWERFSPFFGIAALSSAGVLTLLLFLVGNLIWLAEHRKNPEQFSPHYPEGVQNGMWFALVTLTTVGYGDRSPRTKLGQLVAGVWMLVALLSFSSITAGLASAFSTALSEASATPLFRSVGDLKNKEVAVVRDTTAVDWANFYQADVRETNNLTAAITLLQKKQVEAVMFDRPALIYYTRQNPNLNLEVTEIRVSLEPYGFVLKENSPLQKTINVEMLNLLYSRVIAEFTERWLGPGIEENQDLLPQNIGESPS
Put plainly: two-electrode voltage clamp, Xenopus oocytes. In kind it is cell-based. A general note: Two-electrode voltage clamp holds a large cell at a set potential and records current.

The results in this text go back to doi:10.1101/2021.01.27.428399v1 (biorxiv, 2021).

The term EC50 denotes the midpoint of the concentration-response curve. The low end stands for a more potent agent, the high end for a less potent agent. For `N[C@@H](CCC(=O)O)C(=O)O` [L-glutamate], the midpoint of the response, the EC50, lay at 29.9 ± 5 µM.
